Experiments:
AKT1 E17K mutant protein = AKT1 E17K mutant protein (Homo sapiens (Human), UniProt P31749, E17K); assay: Intact mass spectrometry, covalent complex formation and ARQ-092 competition; format: binding; conditions: for selectivity of complex formation, AKT1 E17K versus AKT1 WT: comparison of the spectra without competitor; for covalent complex formation with AKT1 E17K mutant protein / covalent complex formation with AKT1 E17K mutant protein in presence of competitor: protein 1 μM, compound 1.5 μM, 2 hrs at 37° C., NaBH4 reduction; for covalent complex formation with AKT1 E17K mutant protein: absence of competitor; for covalent complex formation with AKT1 E17K mutant protein in presence of competitor: with ARQ092 (50 μM)
AKT1 E17K mutant protein, sequence (P31749 2-480 E17K): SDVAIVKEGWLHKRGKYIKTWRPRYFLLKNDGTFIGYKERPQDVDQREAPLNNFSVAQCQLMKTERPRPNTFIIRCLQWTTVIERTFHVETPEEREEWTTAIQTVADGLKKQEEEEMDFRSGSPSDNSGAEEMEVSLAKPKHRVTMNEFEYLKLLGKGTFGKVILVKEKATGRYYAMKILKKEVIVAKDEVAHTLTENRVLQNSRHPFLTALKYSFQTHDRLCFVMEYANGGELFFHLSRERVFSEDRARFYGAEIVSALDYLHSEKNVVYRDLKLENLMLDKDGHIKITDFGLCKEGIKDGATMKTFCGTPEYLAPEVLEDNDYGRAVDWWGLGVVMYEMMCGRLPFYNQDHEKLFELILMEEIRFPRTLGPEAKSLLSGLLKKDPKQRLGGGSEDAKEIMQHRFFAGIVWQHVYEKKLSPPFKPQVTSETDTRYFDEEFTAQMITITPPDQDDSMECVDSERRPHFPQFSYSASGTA
Procedure: (§1) AKT1 WT or AKT1 E17K (1 μM) was treated with a compound from Table 1 (1.5 μM) for 2 hrs at 37° C., with and without ARQ092 (50 μM) competitor as a specificity control. Reversible imines were captured by reductive amination with 5 mM NaBH4 for 5 min. Reduction reactions were quenched by diluting the sample in equal volume acetonitrile+1% TFA, then analyzed by LCMS.
(§2) FIGS. 1 to 25 provide intact mass spectra for AKT1 WT protein and AKT1 E17K mutant protein after incubation with compounds of the present disclosure and subsequent borohydride reduction. […] Further, FIGS. 1 to 10, 12, and 14 to 25 each provide intact mass spectra following the incubation of an AKT1 protein with a compound of the present disclosure both in the absence of a competitor molecule (i.e., ARQ-092, a molecule known to bind to and inhibit the function of AKT1); and in the presence of a significant stoichiometric excess of a competitor molecule.

AKT1 WT [1] = target: T1, AKT1 WT (Homo sapiens (Human), UniProt P31749); assay: as above; format: binding; conditions: protein 1 μM, compound 1.5 μM, 2 hrs at 37° C., NaBH4 reduction; for covalent complex formation with AKT1 WT protein: absence of competitor; for covalent complex formation with AKT1 WT protein in presence of competitor: with ARQ092 (50 μM)
Procedure: as §1, §2
Target sequence in this assay (P31749 2-480): as the sequence (P31749 2-480 E17K) above, with K16E counted along it

AKT1 E17K [2] = target: T2, AKT1 E17K (Homo sapiens (Human), UniProt P31749, E17K); assay: Dissociation rate by intact protein LCMS after ARQ092 chase; format: binding; conditions: for AKT1 E17K t1/2: compound 1.5 μM, 2 hours at 37° C., then ARQ092 50 μM; for Off-rate Selectivity E17K/WT: ratio of t1/2
Procedure: (§3) AKT1 WT or AKT1 E17K (1 μM) were treated with a compound of Table 1 (1.5 μM) for 2 hours at 37° C., then ARQ092 (50 μM final concentration) was added to prevent aldehyde-containing compound rebinding after initial dissociation. At various timepoints, aliquots were removed and quenched with 5 mM NaBH4 for 5 min to capture the reversible imine through reductive amination. Reduction reactions were quenched by diluting the sample in equal volume acetonitrile+1% TFA, then analyzed by LCMS. Deconvoluted monoisotopic intensities of unmodified vs. compound-modified mass peaks were compared.
Target sequence in this assay (P31749 2-480 E17K): as the sequence (P31749 2-480 E17K) above

AKT1 WT [3] = target: T1, AKT1 WT; assay: as above; format: binding; conditions: compound 1.5 μM, 2 hours at 37° C., then ARQ092 50 μM
Procedure: as §3
Target sequence in this assay (P31749 2-480): as the sequence (P31749 2-480 E17K) above, with K16E counted along it

AKT1 E17K [4] = target: T2, AKT1 E17K; assay: Live cell target engagement (NanoBRET) in HEK293 cells; format: cell-based; conditions: for IC50: HEK293, 2 hours at 37° C.
Target sequence in this assay (P31749 whole entry E17K): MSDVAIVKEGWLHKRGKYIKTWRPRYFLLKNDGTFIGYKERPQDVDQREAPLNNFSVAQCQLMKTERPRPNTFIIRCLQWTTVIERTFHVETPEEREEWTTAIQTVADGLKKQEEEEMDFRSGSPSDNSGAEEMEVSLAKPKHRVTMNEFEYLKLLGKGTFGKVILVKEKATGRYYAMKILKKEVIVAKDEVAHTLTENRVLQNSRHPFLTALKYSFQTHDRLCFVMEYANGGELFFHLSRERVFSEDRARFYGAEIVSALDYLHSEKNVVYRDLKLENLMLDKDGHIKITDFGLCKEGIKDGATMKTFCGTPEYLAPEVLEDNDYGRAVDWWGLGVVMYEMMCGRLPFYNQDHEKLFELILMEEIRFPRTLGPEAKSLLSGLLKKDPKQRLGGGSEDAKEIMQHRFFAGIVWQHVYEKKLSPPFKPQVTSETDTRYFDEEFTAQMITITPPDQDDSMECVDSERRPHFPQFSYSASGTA

AKT1 WT [5] = target: T1, AKT1 WT; assay: as above; format: cell-based; conditions: HEK293, 2 hours at 37° C.
Target sequence in this assay (P31749 whole entry): as the sequence (P31749 whole entry E17K) above, with K17E counted along it

AKT2 = AKT2 (Homo sapiens (Human), UniProt P31751); assay: as above; format: cell-based; conditions: HEK293, 2 hours at 37° C.
AKT2, sequence (P31751 whole entry): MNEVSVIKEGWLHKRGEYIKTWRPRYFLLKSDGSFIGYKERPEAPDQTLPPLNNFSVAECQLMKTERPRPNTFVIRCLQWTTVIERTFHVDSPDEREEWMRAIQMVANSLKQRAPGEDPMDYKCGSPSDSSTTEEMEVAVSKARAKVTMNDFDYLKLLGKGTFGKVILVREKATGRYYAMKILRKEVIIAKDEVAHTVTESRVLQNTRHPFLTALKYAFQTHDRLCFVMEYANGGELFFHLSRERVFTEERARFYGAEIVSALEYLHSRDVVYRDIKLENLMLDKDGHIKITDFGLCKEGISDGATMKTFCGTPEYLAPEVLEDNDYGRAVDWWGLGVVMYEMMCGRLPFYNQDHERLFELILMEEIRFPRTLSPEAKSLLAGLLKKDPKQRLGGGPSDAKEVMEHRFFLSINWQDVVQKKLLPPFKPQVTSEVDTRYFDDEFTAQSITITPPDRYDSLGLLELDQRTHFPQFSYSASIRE

Structure (SMILES) | selectivity of complex formation, AKT1 E17K versus AKT1 WT (AKT1 E17K mutant protein) | covalent complex formation with AKT1 E17K mutant protein (AKT1 E17K mutant protein) | covalent complex formation with AKT1 WT protein (AKT1 WT [1]) | AKT1 E17K t1/2 (AKT1 E17K [2]) | Off-rate Selectivity E17K/WT (AKT1 E17K [2]) | AKT1 (WT) t1/2 (AKT1 WT [3]) | AKT1 E17K IC50: Selectivity vs AKT1 WT (AKT1 E17K [4]) | AKT1 E17K IC50: Selectivity vs AKT2 (AKT1 E17K [4]) | IC50 (AKT1 E17K [4]) | IC50 (AKT1 WT [5]) | IC50 (AKT2) | covalent complex formation with AKT1 E17K mutant protein in presence of competitor (AKT1 E17K mutant protein) | covalent complex formation with AKT1 WT protein in presence of competitor (AKT1 WT [1])
Nc1ncccc1-c1nc2ccc(-c3ccccc3)nc2n1-c1ccc(CNC(=O)c2ccc(O)c(C=O)c2)cc1 [Compound 73, N-(4-(2-(2-aminopyridin-3-yl)-5-phenyl-3H-imidazo[4,5-b]pyridin-3-yl)benzyl)-3-formyl-4-hydroxybenzamide] | selective for complex formation with AKT1 E17K | presence of a covalent complex | small level of a covalent complex | 94.2 min | 3.8 | 25 min | 2.1 | 22 | < 100 nM | < 100 nM | 100 to 500 nM |  | 
Nc1ncccc1-c1nc2cccnc2n1-c1ccc(CNC(=O)C(F)c2ccc(C=O)c(O)c2)cc1 (stereo not drawn) [Compound 74, N-({4-[2-(2-aminopyridin-3-yl)imidazo[4,5-b]pyridin-3-yl]phenyl}methyl)-2-fluoro-2-(4-formyl-3-hydroxyphenyl)acetamide] |  | significant presence of a covalent complex | significant presence of covalent complex | 73.2 min | 6.1 | 12 min | 5.5 | 130 | < 100 nM | < 100 nM | > 500 nM | Essentially little to no covalent complex formation | Essentially no covalent complex formation
Nc1ncccc1-c1nc2ccc(-c3ccccc3)nc2n1-c1ccc(CNC(=O)Cc2ccc(C=O)c(O)c2F)cc1 [Compound 94, N-({4-[2-(2-aminopyridin-3-yl)-5-phenylimidazo[4,5-b]pyridin-3-yl]phenyl}methyl)-2-(2-fluoro-4-formyl-3-hydroxyphenyl)acetamide] |  | presence of a covalent complex | presence of a covalent complex | 111 min | 4.6 | 24.2 min | 2.5 | 22 | < 100 nM | < 100 nM | 100 to 500 nM | Essentially no covalent complex formation | Essentially no covalent complex formation
Nc1ncccc1-c1nc2cccnc2n1-c1ccc(CNC(=O)Cc2ccc(C=O)c(O)c2)cc1 [Compound 96, N-(4-(2-(2-aminopyridin-3-yl)-3H-imidazo[4,5-b]pyridin-3-yl)benzyl)-2-(4-formyl-3-hydroxyphenyl)acetamide] |  | significant presence of a covalent complex | significant presence of covalent complex | 55.5 min | 5.2 | 10.7 min | 4.6 | 64 | < 100 nM | < 100 nM | > 500 nM | Essentially little to no covalent complex formation | Essentially no covalent complex formation
CC(=O)Nc1cc(CCNCc2ccc(-n3c(-c4cccnc4N)nc4ccc(-c5ccccc5)nc43)cc2)ccc1C=O [Compound 110, N-(5-(2-((4-(2-(2-aminopyridin-3-yl)-5-phenyl-3H-imidazo[4,5-b]pyridin-3-yl)benzyl)amino)ethyl)-2-formylphenyl)acetamide] | selective for complex formation with AKT1 E17K | significant presence of a covalent complex | small presence of covalent complex | 43.2 min | 8.8 | 4.9 min | 1.2 | 5.3 | < 100 nM | < 100 nM | < 100 nM | Essentially little to no covalent complex formation | Essentially no covalent complex formation
Nc1ncccc1-c1nc2ccc(-c3ccccc3)nc2n1-c1ccc(CNCCc2ccc(C=O)cc2)cc1 [Compound 125, 4-(2-((4-(2-(2-aminopyridin-3-yl)-5-phenyl-3H-imidazo[4,5-b]pyridin-3-yl)benzyl)amino)ethyl)benzaldehyde] |  | presence of covalent complex | only peaks corresponding to unmodified WT protein | 176 min | 3.9 | 45.3 min | 0.28 | 0.39 | 100 to 500 nM | 100 to 500 nM | 100 to 500 nM | Essentially no covalent complex formation | only peaks corresponding to unmodified WT protein
Nc1ncccc1-c1nc2ccc(-c3ccccc3)nc2n1-c1ccc(CNCCc2ccc(C=O)c(O)c2)cc1 [Compound 133, 4-(2-((4-(2-(2-aminopyridin-3-yl)-5-phenyl-3H-imidazo[4,5-b]pyridin-3-yl)benzyl)amino)ethyl)-2-hydroxybenzaldehyde] |  | a covalent complex between Compound 133 and AKT1 E17K mutant protein was observed | a noticeable level of covalent complex was formed | 126 min | 5.6 | 22.7 min | 1.4 | 4.7 | < 100 nM | < 100 nM | 100 to 500 nM | essentially no covalent complex formation | essentially no covalent complex formation
Nc1ncccc1-c1nc2ccc(-c3cccc(N4CCOCC4)c3)nc2n1-c1ccc(CNC(=O)Cc2ccc(C=O)c(O)c2F)cc1 [Example 21, N-({4-[2-(2-aminopyridin-3-yl)-5-[3-(morpholin-4-yl)phenyl]imidazo[4,5-b]pyridin-3-yl]phenyl}methyl)-2-(2-fluoro-4-formyl-3-hydroxyphenyl)acetamide] |  | significant presence of a covalent complex | significant presence of a covalent complex | 68.2 min | 1.5 | 45.3 min | 1.5 | 4.8 | < 100 nM | < 100 nM | < 100 nM | Essentially no covalent complex formation | Essentially no covalent complex formation
